Laboratory results as given in PubChem BioAssay (NCI).
Where “and” joins values, the source holds several entries; their conditions need not be identical. Equal values may be shown once.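 All cell lines were grown in 96-well plates and treated with compound for 48 hours. TGI denotes the concentration required for complete inhibition of growth.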

Key:
Experiment in all cases: NCI-60 cell line screen, 48 h
HCC-2998 colon = system: HCC-2998 colon
EKVX NSCLC = system: EKVX NSCLC
A498 renal = system: A498 renal
T-47D breast = system: T-47D breast
HL-60(TB) leukemia = system: HL-60(TB) leukemia
SK-OV-3 ovarian = system: SK-OV-3 ovarian
MDA-N = system: MDA-N
SK-MEL-2 melanoma = system: SK-MEL-2 melanoma
MCF7 breast = system: MCF7 breast
U251 CNS = system: U251 CNS

Row | Structure (SMILES) | TGI (HCC-2998 colon) | TGI (EKVX NSCLC) | TGI (A498 renal) | TGI (T-47D breast) | TGI (HL-60(TB) leukemia) | TGI (SK-OV-3 ovarian) | TGI (MDA-N) | TGI (SK-MEL-2 melanoma) | TGI (MCF7 breast) | TGI (U251 CNS)
1 | CC(=N\N=C\c1ccccn1)/C(C)=N/N=C(C)/C(C)=N/N=C(C)/C(C)=N/N=C/c1ccccn1 | > 100 µM | > 100 µM | > 100 µM | > 100 µM | > 100 µM | > 100 µM | > 100 µM | > 100 µM | > 100 µM | > 100 µM
2 | CS(=O)(=O)O.[Ag] | 28.8 µM | 38.4 µM | 40 µM | 5.5 µM | 11.4 µM | 36.4 µM | 19.9 µM | 30.2 µM | 24.8 µM | 30.6 µM
3 | O=C(O)C1SCCS1 | > 100 µM | > 100 µM | > 100 µM | > 100 µM | > 100 µM | > 100 µM | > 100 µM | – | > 100 µM | > 100 µM
4 | O=C(O)/C=C/C(=O)O | > 100 µM | > 100 µM | – | > 100 µM | > 100 µM | – | > 100 µM | > 100 µM | > 100 µM | > 100 µM
5 | O=C(OCc1ccccc1)N1c2cc([N+](=O)[O-])ccc2C(=O)N2CCC[C@H]2C1O (stereo partly specified) | > 100 µM | > 100 µM | > 100 µM | > 100 µM | > 100 µM | > 100 µM | > 100 µM | > 100 µM | > 100 µM | > 100 µM
6 | CC[C@@H]1CC[C@@H]2[C@H](CC[C@]3(C)[C@@H](OS(=O)(=O)c4ccc(C)cc4)CC[C@@H]23)[C@H]1CO | > 100 µM | > 100 µM | > 100 µM | > 100 µM | > 100 µM | – | > 100 µM | – | > 100 µM | > 100 µM
7 | CCOC(=O)C(C)c1nc2cc(N3CCN(C)CC3)c(F)cc2[nH]c1=O (stereo unspecified) | – | > 100 µM | > 100 µM | > 100 µM | > 100 µM | > 100 µM | > 100 µM | > 100 µM | > 100 µM | > 100 µM
8 | COc1ccc(/C=C2\CN(C)Cc3c2[nH]c(=O)c(C#N)c3-c2ccc(OC)cc2)cc1 | – | > 100 µM | – | > 100 µM | 31.8 µM | > 100 µM | > 100 µM | > 100 µM | > 100 µM | > 100 µM
9 | COc1ccc(C2=CN3CCC[C@H]3C=C2c2cc(O)c(OC)c(OC)c2)cc1OC | 0.0412 µM and 0.0431 µM | 0.228 µM and 1.82 µM | 0.0269 µM and 0.062 µM | 0.0938 µM | 0.161 µM and 0.0175 µM | 0.221 µM | 0.104 µM | 0.0161 µM | – | 0.105 µM and 0.28 µM
10 | CC(=O)NC1=C(C)C(=O)c2c(nc3n2CC[C@H]3OC(C)=O)C1=O | 7.73 µM | 17.5 µM | 30.5 µM | 1.37 µM | 8.97 µM | – | 1.69 µM | 3.52 µM | 3.37 µM | 3.22 µM
11 | Cc1cc([N+](=O)[O-])ccc1N=NC(=O)NNc1ccc([N+](=O)[O-])cc1C | 31 µM | – | 27.2 µM | 28.9 µM | 40.9 µM | – | 29.9 µM | 43.6 µM | 20.5 µM | 32.9 µM
12 | NC(=O)NCCCC(NC(=O)OCCCCCn1ccc(=O)[nH]c1=O)C(=O)O (stereo unspecified) | > 100 µM | > 100 µM | – | > 100 µM | > 100 µM | > 100 µM | > 100 µM | > 100 µM | > 100 µM | > 100 µM
13 | CC1CCC2(CC1)N=C1CCC(C)CC1C1(CCC(C)CC1)N2 (stereo unspecified) | > 100 µM | – | > 100 µM | > 100 µM | > 100 µM | > 100 µM | > 100 µM | > 100 µM | > 100 µM | > 100 µM
14 | Cc1c(F)c(N)c2c(=O)cc(-c3ccc(NC(=O)C(N)CCCN=C(N)N)c(F)c3)oc2c1F (stereo unspecified) | > 100 µM | > 100 µM | 0.281 µM | > 100 µM | > 100 µM | > 68.2 µM | > 100 µM | 60 µM | – | > 55.3 µM
15 | OCC(O)C(O)C(O)C(/C=N\Nc1ncnc2ccc(Br)cc12)=N/Nc1ncnc2ccc(Br)cc12 (stereo unspecified) | – | > 100 µM | > 100 µM | > 100 µM | > 100 µM | > 100 µM | > 100 µM | > 100 µM | > 100 µM | > 100 µM
16 | COc1cc2c(cc1Cl)n([O-])c(C#N)c(N1CCN(c3ccc([N+](=O)[O-])cc3)CC1)[n+]2=O | 78.8 µM | > 100 µM | – | > 81.5 µM | > 100 µM | > 100 µM | > 100 µM | > 100 µM | > 100 µM | > 100 µM
17 | CCOC(=O)C(NCc1cccc(C(F)(F)F)c1)(NC(=O)c1ccccc1)C(F)(F)F (stereo unspecified) | > 100 µM | 83.9 µM | – | 80 µM | > 100 µM | > 100 µM | > 100 µM | > 100 µM | > 100 µM | > 100 µM
18 | C#CCOC(=O)C(N)CCCN=C(N)N (stereo unspecified) | > 100 µM | > 100 µM | > 100 µM | > 100 µM | > 100 µM | – | > 100 µM | > 100 µM | > 100 µM | > 100 µM
